Test [1] relates to MCF7. In words: Cytotoxicity against human MCF7 cells by […] labeling study. The test is classed as functional. The note with it: MCF7, light or radiation study, read-out: ED50 (the source's name).
Test [2] can be described thus: Induction of microtubule assembly by photoaffinity labeling study.
The nature of test [3]: Cytotoxicity against human NCI/ADR cells by phototoxicity labeling study. As to conditions: NCI/ADR-RES, light or radiation study, read-out: ED50 (the source's name). The format is functional.
Test [4] can be described thus: Ratio of ED50 for epothilone B to ED50 for compound for human NCI/ADR cells. The format is functional.
Test [5] deals with MCF7. In words: Ratio of ED50 for epothilone B to ED50 for compound for human MCF7 cells. The format is functional.
Test [6] is described as follows: Induction of microtubule assembly by photoaffinity labeling study in presence of epothilone B.
Test [7] can be described thus: Ratio of ED50 for epothilone B to ED50 for compound for induction of microtubule assembly by photoaffinity labeling study.

Calls of active or inactive are those of the source. The calls are words filed in the database; no cut-off is given here.

Results on 2 compounds are retold here after ChEMBL document CHEMBL1781880, “Total synthesis and evaluation of 22-(3-azidobenzoyloxy)methyl epothilone C for photoaffinity labeling of beta-tubulin” (2009).

Take `C/C(=C\c1csc(C)n1)[C@@H]1C[C@@H]2O[C@]2(C)CCC[C@H](C)[C@H](O)[C@@H](C)C(=O)C(C)(C)[C@@H](O)CC(=O)O1` [PATUPILONE]: the EC50 in test [1] came to 1.5 nM; in test [3], 1.2 nM. Moreover, in test [2], the ED50 turned out to be 1 µM.

Regarding `C/C(=C\c1csc(C)n1)[C@@H]1C/C=C\CCC[C@H](C)[C@H](O)[C@@H](C)C(=O)[C@](C)(CCOC(=O)c2cccc(N=[N+]=[N-])c2)[C@@H](O)CC(=O)O1`, the “Ratio ED50” value in test [4] turned out to be 833; in test [5], 632; in test [7] it was 5.1. For the same compound, in test [6], the outcome was inactive. For the same compound, the values for the EC50 in test [1] and in test [3] were 1200 nM and 1000 nM, respectively. Moreover, the ED50 in test [2] is 5.1 µM.
